Source: patent publication US8486885B2, “β-arrestin effectors and compositions and methods of use thereof” (Trevena, Inc., priority 2008, dated 2013)
Non-standard residues stand in square brackets, D forms with d. Residues, ends and D or L forms follow the SMILES beside them. Sar = CNCC(=O)O

Columns and labels:
Assay type in all cases: cell-based
[1] = molecular target: T1, rat angiotensin 2 type 1 receptor (rat AT1aR) (Rattus norvegicus, UniProt P25095); experiment: IP1 accumulation assay (IP-One Tb), rat AT1aR; details: cells expressing rat AT1aR
T1 construct: expressed in transfected cells
T1 sequence (P25095 1-359): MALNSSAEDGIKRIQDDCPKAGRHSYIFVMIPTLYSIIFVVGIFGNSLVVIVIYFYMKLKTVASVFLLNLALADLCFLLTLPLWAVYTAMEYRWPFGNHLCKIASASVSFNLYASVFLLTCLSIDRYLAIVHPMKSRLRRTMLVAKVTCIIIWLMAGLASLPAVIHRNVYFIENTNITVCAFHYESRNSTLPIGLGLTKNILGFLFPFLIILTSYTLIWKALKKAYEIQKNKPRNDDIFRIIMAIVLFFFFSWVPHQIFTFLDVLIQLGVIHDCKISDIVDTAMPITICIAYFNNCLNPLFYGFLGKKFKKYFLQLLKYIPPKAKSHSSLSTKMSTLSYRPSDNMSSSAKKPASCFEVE
Protocol: (§1) A secondary measure of G protein coupling efficacy was also performed. IP3 is generated by activation of phospholipase C by Gα-q. IP3 is degraded to IP1, which can be forced to accumulate in cells by blocking degradation with lithium chloride. Thus we measured accumulation of IP1 to determine ligand efficacy for G protein activation.
(§2) IP1 accumulation generated by human and rat angiotensin 2 type 1 receptor (human AT1R and rat AT1aR, respectively) was measured with IP-One Tb kits purchased from Cisbio and used per the manufacturer's instructions. Clonal stably transfected cell lines expressing human AT1TR or rat AT1aR were used for all experiments.
(§3) For assays, 4,000 cells were seeded per well in 384-well small-volume microplates in volumes of 20 uL and allowed to grow overnight at 37° C. in 5% CO2. Cell growth media was then replaced with stimulation buffer supplied by Cisbio containing 50 mM lithium chloride. Peptides TRV-120,001 through TRV-120,035 were dissolved in deionized water to a concentration of 1 mM. For agonist detection, peptides were then further diluted in stimulation buffer to add peptide to the cells to reach final concentrations ranging from 10 uM to 1 pM. […] Following addition of peptides, cells were incubated at 37° C. in 5% CO2 for 30 minutes and then lysed with detection reagents added per manufacturer's instructions.

[2] = molecular target: rat angiotensin 2 type 1 receptor (rat AT1aR) (Rattus norvegicus, UniProt P25095); experiment: PathHunter β-arrestin-2 recruitment assay, rat AT1aR; details: PathHunter β-arrestin HEK293 cells; for EC50: read-out: rat AT1aR b-arrestin2 EC50
Protocol: (§4) The proximal event in β-arrestin function mediated by GPCRs is recruitment to receptors following ligand binding and receptor phosphorylation by GRK's. Thus, the measure of β-arrestin recruitment was used to determine ligand efficacy for β-arrestin function.
(§5) B-arrestin-2 recruitment to the human and rat angiotensin 2 type 1 receptor (human AT1R and rat AT1aR, respectively) was measured with the PathHunter™ β-arrestin assay (DiscoveRx Corporation, Fremont Calif.). Cells, plasmid(s), and detection reagent(s) were purchased from DiscoveRx, and assays were performed per manufacturer's instructions. Human AT1R and rat AT1aR were cloned into the pCMV-ProLink vector, verified by sequencing, and transfected into PathHunter β-arrestin HEK293 cells. Stably transfected clonal cell lines were selected with Hygromycin and G418. These clonal cell lines were used for all experiments.
(§6) For assays, 25,000 cells were seeded per well in 96-well microplates in volumes of 90 μL and allowed to grow overnight at 37° C. in 5% CO2. Peptides of the invention were dissolved in deionized water to a concentration of 1 mM. Peptides were then further diluted in assay buffer (Hank's balanced salt solution with 20 mM HEPES) to add peptide to the cells to reach final concentrations ranging from 10 μM to 1 pM. Cells were then incubated for 60 minutes at 37° C. in 5% CO2, followed by addition of 50 μL of PathHunter Detection Reagent to each well. The microplates were then incubated at room temperature for 60 minutes, and then luminescence was measured using a NOVOstar microplate reader purchased from BMG Labtech. B-arrestin-2 recruitment to receptors was measured as relative luminescence intensity expressed in arbitrary units.
Target sequence in this assay (P32121 whole entry partner, one chain of several): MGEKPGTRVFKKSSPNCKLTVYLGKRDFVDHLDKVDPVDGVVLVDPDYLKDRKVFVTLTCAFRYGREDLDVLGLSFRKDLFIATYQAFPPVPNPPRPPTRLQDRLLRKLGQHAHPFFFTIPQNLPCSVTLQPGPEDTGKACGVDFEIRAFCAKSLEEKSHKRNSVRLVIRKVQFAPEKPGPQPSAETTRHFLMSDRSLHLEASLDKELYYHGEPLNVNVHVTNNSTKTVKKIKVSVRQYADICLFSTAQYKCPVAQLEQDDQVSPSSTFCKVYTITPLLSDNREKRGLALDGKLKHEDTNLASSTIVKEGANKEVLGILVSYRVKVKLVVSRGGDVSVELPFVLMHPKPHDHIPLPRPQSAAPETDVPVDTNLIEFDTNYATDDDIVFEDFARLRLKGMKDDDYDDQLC

[3] = molecular target: human angiotensin 2 type 1 receptor (human AT1R) (Homo sapiens, UniProt P30556); experiment: PathHunter β-arrestin-2 recruitment assay, human AT1R; details: PathHunter β-arrestin HEK293 cells; for EC50: read-out: human AT1R b-arrestin2 EC50
Protocol: as §4, §5, §6
Target sequence in this assay (P32121 whole entry partner, one chain of several): as above

[4] = molecular target: T2, human angiotensin 2 type 1 receptor (human AT1R) (Homo sapiens, UniProt P30556); experiment: IP1 accumulation assay (IP-One Tb), human AT1R; details: cells expressing human AT1R
T2 construct: expressed in transfected cells
T2 sequence (P30556 1-359): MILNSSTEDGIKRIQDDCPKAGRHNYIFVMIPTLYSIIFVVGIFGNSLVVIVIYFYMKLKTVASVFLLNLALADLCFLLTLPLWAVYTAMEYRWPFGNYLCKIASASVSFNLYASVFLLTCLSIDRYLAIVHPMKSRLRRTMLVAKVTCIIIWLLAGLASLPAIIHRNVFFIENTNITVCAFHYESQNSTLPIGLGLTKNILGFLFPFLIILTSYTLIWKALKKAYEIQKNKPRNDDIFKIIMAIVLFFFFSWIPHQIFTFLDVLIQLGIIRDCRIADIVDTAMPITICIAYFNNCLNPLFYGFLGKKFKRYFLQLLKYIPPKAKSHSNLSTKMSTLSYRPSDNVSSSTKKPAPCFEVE
Protocol: as §1, §2, §3

Compound | rat AT1aR IP One EC50 (M) [1] | rat AT1aR b-arrestin2 Max (%) [2] | EC50 [2] | human AT1R b-arrestin2 Max (%) [3] | human AT1R IP One EC50 (M) [4] | EC50 [3] | EC50 [1] | rat AT1aR IP One Max (%) [1]
CNCC(=O)N[C@@H](CCCNC(=N)N)C(=O)N[C@H](C(=O)N[C@@H](Cc1ccc(O)cc1)C(=O)N[C@@H](CCC(=O)O)C(=O)N[C@@H](Cc1c[nH]cn1)C(=O)N1CCC[C@H]1C(N)=O)C(C)C [SEQ ID NO:40, Sar-Arg-Val-Tyr-Glu-His-Pro-NH2] (H-[Sar]RVYEHP-NH2; N-terminus assumed) | Inactive | 87.9% | 31 nM | 53.2% | inactive | – | – | –
CNCC(=O)N[C@@H](CCCNC(=N)N)C(=O)N[C@H](C(=O)N[C@@H](Cc1ccc(O)cc1)C(=O)N[C@@H](Cc1ccccc1)C(=O)N[C@@H](Cc1c[nH]cn1)C(=O)N1CCC[C@H]1C(N)=O)C(C)C [SEQ ID NO:41, Sar-Arg-Val-Tyr-Phe-His-Pro-NH2] | Inactive | 53.1% | – | 30.1% | inactive | 1600 nM | – | –
CNCC(=O)N[C@@H](CCCNC(=N)N)C(=O)N[C@H](C(=O)N[C@@H](Cc1ccc(O)cc1)C(=O)N[C@@H](Cc1c[nH]cn1)C(=O)N[C@@H](Cc1c[nH]cn1)C(=O)N1CCC[C@H]1C(N)=O)C(C)C [SEQ ID NO:42, Sar-Arg-Val-Tyr-His-His-Pro-NH2] (H-[Sar]RVYHHP-NH2; N-terminus assumed) | Inactive | 74.9% | 270 nM | 46.4% | inactive | 630 nM | – | –
CNCC(=O)N[C@@H](CCCNC(=N)N)C(=O)N[C@H](C(=O)N[C@@H](Cc1ccc(O)cc1)C(=O)N[C@@H](CCCCN)C(=O)N[C@@H](Cc1c[nH]cn1)C(=O)N1CCC[C@H]1C(N)=O)C(C)C [SEQ ID NO:43, Sar-Arg-Val-Tyr-Lys-His-Pro-NH2] (H-[Sar]RVYKHP-NH2) | – | 64.8% | – | 42.7% | inactive | – | 260 nM | 17.9%
CNCC(=O)N[C@@H](CCCNC(=N)N)C(=O)N[C@H](C(=O)N[C@@H](Cc1ccc(O)cc1)C(=O)N[C@@H](CCCNC(=N)N)C(=O)N[C@@H](Cc1c[nH]cn1)C(=O)N1CCC[C@H]1C(N)=O)C(C)C [SEQ ID NO:45, Sar-Arg-Val-Tyr-Arg-His-Pro-NH2] (H-[Sar]RVYRHP-NH2; N-terminus assumed) | – | 91.7% | 27 nM | 53.3% | inactive | – | – | 10.2%
CC[C@H](C)[C@H](NC(=O)[C@H](Cc1ccc(O)cc1)NC(=O)[C@@H](NC(=O)[C@H](CCCNC(=N)N)NC(=O)[C@@H](C)NC)C(C)C)C(=O)N[C@@H](Cc1c[nH]cn1)C(=O)N1CCC[C@H]1C(=O)N[C@@H](C)C(=O)O [SEQ ID NO:47] | Inactive | 72.2% | 2100 nM | 80.5% | – | – | – | –
CC[C@H](C)[C@H](NC(=O)[C@H](Cc1ccccc1)NC(=O)[C@@H](NC(=O)[C@H](CCCNC(=N)N)NC(=O)CNC)C(C)C)C(=O)N[C@@H](Cc1c[nH]cn1)C(=O)N1CCC[C@H]1C(=O)N[C@H](C)C(=O)O [SEQ ID NO:48, Sar-Arg-Val-Phe-Ile-His-Pro-D-Ala-OH] | – | 42.1% | – | 48.1% | inactive | – | 200 nM | 13.9%
CC[C@H](C)[C@H](NC(=O)[C@H](Cc1ccc(O)cc1)NC(=O)[C@@H](NC(=O)[C@H](CCCCN)NC(=O)CNC)C(C)C)C(=O)N[C@@H](Cc1c[nH]cn1)C(=O)N1CCC[C@H]1C(=O)N[C@H](C)C(=O)O [SEQ ID NO:49, Sar-Lys-Val-Tyr-Ile-His-Pro-D-Ala-OH] | Inactive | 52.9% | 630 nM | 72.7% | inactive | 1000 nM | – | –
CC[C@H](C)[C@H](NC(=O)[C@H](Cc1ccc(O)cc1)NC(=O)[C@@H](NC(=O)[C@H](CCCNC(=N)N)NC(=O)CNC)C(C)C)C(=O)N[C@@H](CCCCN)C(=O)N1CCC[C@H]1C(=O)N[C@H](C)C(=O)O [SEQ ID NO:50, Sar-Arg-Val-Tyr-Ile-Lys-Pro-D-Ala-OH] (H-[Sar]RVYIKP[dA]-OH; N-terminus assumed) | Inactive | 85.6% | 270 nM | 56.8% | inactive | 680 nM | – | –
CC[C@H](C)[C@H](NC(=O)[C@H](Cc1ccc(O)cc1)NC(=O)[C@@H](NC(=O)[C@H](CCCNC(=N)N)NC(=O)CNC)C(C)C)C(=O)N[C@@H](Cc1c[nH]cn1)C(=O)N1CCC[C@@H]1C(N)=O [SEQ ID NO:51, Sar-Arg-Val-Tyr-Ile-His-D-Pro-NH2] | Inactive | 5.8% | – | 20.2% | inactive | 330 nM | – | –
CNCC(=O)N[C@@H](CCCNC(=N)N)C(=O)N[C@H](C(=O)N[C@@H](Cc1ccc(O)cc1)C(=O)N[C@@H](Cc1ccc(O)cc1)C(=O)N[C@@H](Cc1c[nH]cn1)C(=O)N1CCC[C@H]1C(=O)O)C(C)C [SEQ ID NO:52, Sar-Arg-Val-Tyr-Tyr-His-Pro-OH] | – | 83.8% | – | 45.9% | inactive | 1400 nM | – | 8.0%
CNCC(=O)N[C@@H](CCCNC(=N)N)C(=O)N[C@H](C(=O)N[C@@H](Cc1ccc(O)cc1)C(=O)N[C@H](C)C(=O)N[C@@H](Cc1c[nH]cn1)C(=O)N1CCC[C@H]1C(N)=O)C(C)C [SEQ ID NO:53, Sar-Arg-Val-Tyr-D-Ala-His-Pro-NH2] | Inactive | 12.2% | – | 33.6% | inactive | 1600 nM | – | –
CNCC(=O)N[C@@H](CCCNC(=N)N)C(=O)N[C@H](C(=O)N[C@@H](Cc1ccc(O)cc1)C(=O)N[C@H](C(=O)N[C@@H](Cc1c[nH]cn1)C(=O)N1CCC[C@H]1C(=O)O)C(C)C)C(C)C [SEQ ID NO:54, Sar-Arg-Val-Tyr-Val-His-Pro-OH] | Inactive | 83.0% | – | 58.6% | inactive | – | – | –
